Results on one compound are retold here after patent US9492805B2, “Initiated chemical vapor deposition of vinyl polymers for the encapsulation of particles” (Massachusetts Institute of Technology, priority 2005, dated 2016).

The nature of this series: Release of ibuprofen from pellets of 25 μm microcrystals in pH buffers, light absorption at 220 nm. In kind it is physicochemical. The settings on record: pH 7.4. The text has this: In another example, 25 μm ibuprofen microcrystals were encapsulated with the iCVD P(MAA-EDMA) copolymer and likewise ibuprofen release was tracked over time at different pH conditions. FIG. 26a gives the time release profiles, comparing uncoated and coated ibuprofen at pH 1.2 and 7.4. […] This enhanced protection in acids would be important for drugs such as ibuprofen and other non-steroidal anti-inflammatory drugs that are known to cause stomach ulceration and hemorrhaging, leading to mucosal damage and severe blood loss with acute dosage and prolonged administration. [S. E. Gabriel, L. Jaakkimainen, C. Bombardier, Ann. Intern. Med. 1991, 115, 787-796; and [ M. M. Wolfe, D. R. Lichtenstein, G. Singh, N. Engl. J. Med. 1999, 340, 1888-1899.] The increase in drug dissolution and activity by using finer drug particles would likely exacerbate this problem. […]
Release Measurements. […] For fluorescein, release was monitored at 490 nm, comparing fluorescein layered on silicon substrates that were exposed or encapsulated with an iCVD P(MAA-EDMA) coating. For ibuprofen, 25 μm ibuprofen microcrystals (DuPont), that were bare or encapsulated with an iCVD P(MAA-EDMA) coating, were compressed into pellets and their release monitored at 220 nm. Absorption was measured on a Varian Cary 6000i.

For the compound `CC(C)Cc1ccc(C(C)C(=O)O)cc1` (stereo not shown) [ibuprofen], the “release of ibuprofen at near neutral pH” value is “relatively fast”.
